# Data reported in patent US12617777B2, “GPR84 antagonists and uses thereof” (Liminal BioSciences Limited, priority 2021, dated 2026).
# Target: T1, human GPR84 receptor (Homo sapiens, UniProt Q9NQS5)
# T1 construct: host or cells: HEK293, transient transfection
# Assay: Gαi biosensor BRET assay in HEK293 cells (antagonism of ZQ-16)
# Type: cell-based
# Settings: for inhibition at 2 µM: HEK293, single concentration 2 μM (designated A); for inhibition at 10 µM: HEK293, single concentration 10 μM (designated F); for IC50: HEK293 cells, antagonism of 200 nmol/L ZQ-16
# In short: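 HEK293 cells transiently expressing human GPR84, Gαi2-Rluc8, GFP10-Gγ2 and Gβ1, in Tyrode's buffer pH 7.5. Compounds preincubated 5 min at 37° C, then 200 nmol/L ZQ-16 for 5 min at room temperature; coelenterazine 400A 5 μmol/L. BRET2 acceptor/donor ratio, background- and vehicle-corrected net BRET.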
# T1 sequence (Q9NQS5 whole entry): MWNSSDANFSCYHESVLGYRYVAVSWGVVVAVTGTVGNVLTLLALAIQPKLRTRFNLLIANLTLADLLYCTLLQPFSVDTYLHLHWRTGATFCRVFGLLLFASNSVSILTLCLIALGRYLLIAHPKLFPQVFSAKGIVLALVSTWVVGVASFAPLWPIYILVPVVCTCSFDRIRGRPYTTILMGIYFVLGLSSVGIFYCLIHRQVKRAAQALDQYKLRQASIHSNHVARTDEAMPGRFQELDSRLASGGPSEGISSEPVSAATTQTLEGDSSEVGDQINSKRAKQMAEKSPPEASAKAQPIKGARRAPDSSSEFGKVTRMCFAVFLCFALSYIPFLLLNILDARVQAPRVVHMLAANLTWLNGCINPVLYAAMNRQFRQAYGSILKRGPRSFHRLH
inhibition at 2 µM,inhibition at 10 µM,IC50,Compound
≤ 25%,–,–,Cc1cc(Cn2cc(-c3ccc(C#CC4CC4)cc3C)nn2)on1 [Compound I-557]
–,≤ 25%,–,Cc1cc(CN2CC(=O)NC2=O)ccc1-c1cn(CC2CCCCO2)nn1 (stereo not drawn) [Compound I-558]
–,≤ 25%,–,Cc1cc(C(=O)Nc2cc[nH]n2)ccc1-c1cn(CC2CCCCO2)nn1 (stereo not drawn) [Compound I-559]
–,25 to 50%,–,FC(F)c1cc(C#CC2CC2)ccc1-c1cn(CC2CCCCO2)nn1 (stereo not drawn) [Compound I-560]
–,> 75%,> 3 µM,Cc1cc(N2CCN(Cc3ccccn3)CC2)ccc1-c1cn(CC2CC(C)(C)O2)nn1 (stereo not drawn) [Compound I-561]
–,≤ 25%,–,Cc1cc(N2CCN(c3ccncc3)CC2)ccc1-c1cn(CC2CCCCO2)nn1 (stereo not drawn) [Compound I-563]
–,≤ 25%,–,Cc1ccc(N2CCN(Cc3ccccn3)CC2)cc1-c1cn(CC2CCCCO2)nn1 (stereo not drawn) [Compound I-564]
–,50 to 75%,–,Cc1cc(N2CCN(Cc3ccncn3)CC2)ccc1-c1cn(CC2CCCCO2)nn1 (stereo not drawn) [Compound I-565]
–,25 to 50%,–,Cc1cc(N2CCN(Cc3cncnc3)CC2)ccc1-c1cn(CC2CCCCO2)nn1 (stereo not drawn) [Compound I-566]
–,50 to 75%,1 to 3 µM,Cc1cc(N2CC3(CCN(c4ccccn4)CC3)C2)ccc1-c1cn(CC2CCCCO2)nn1 (stereo not drawn) [Compound I-567]
–,≤ 25%,–,Cc1ccc(C#CC2CC2)cc1-c1cn(CC2OCCCC2(C)C)nn1 (stereo not drawn) [Compound I-568]
–,> 75%,1 to 3 µM,Cc1cc(C#CC2CC2)ccc1-c1cn(CC2CC3(CC3)CO2)nn1 (stereo not drawn) [Compound I-569]
–,> 75%,> 3 µM,"Cc1cc(C#CCNC(=O)OC(C)C)cnc1-c1cn(CC2CCCCO2)nn1 (stereo not drawn) [Compound I-570, isopropyl (3-(5-methyl-6-(1-((tetrahydro-2H-pyran-2-yl)methyl)-1H-1,2,3-triazol-4-yl)pyridin-3-yl)prop-2-yn-1-yl)carbamate]"
–,≤ 25%,–,Cc1cc(N2CC3(CC3)C2)cnc1-c1cn(CC2CCCCO2)nn1 (stereo not drawn) [Compound I-571]
–,> 75%,–,COC(=O)NCC#Cc1cnc(-c2cn(CC3CCCCO3)nn2)c(C)c1 (stereo not drawn) [Compound I-573]
–,≤ 25%,–,Cc1c(-c2ccc(C#CC3CC3)cc2)nnn1CC1CCCCS1(=O)=O (stereo not drawn) [Compound I-574]
–,> 75%,–,Cc1cc(C#CC2CC2)cc(F)c1-c1cn(CC2CCCCO2)nn1 (stereo not drawn) [Compound I-575]
–,50 to 75%,–,Cc1cc(C#CC2COC2)ccc1-c1cn(CC2CCCCO2)nn1 (stereo not drawn) [Compound I-576]
–,25 to 50%,–,Cc1cc(N2CCN(Cc3cnccn3)CC2)ccc1-c1cn(CC2CCCCO2)nn1 (stereo not drawn) [Compound I-577]
–,50 to 75%,> 3 µM,Cc1cc(N2CCN(Cc3cccnc3)CC2)ccc1-c1cn(CC2CCCCO2)nn1 (stereo not drawn) [Compound I-578]
–,> 75%,–,Cc1cc(N2CCN(Cc3ncco3)CC2)ccc1-c1cn(CC2CCCCO2)nn1 (stereo not drawn) [Compound I-579]
–,25 to 50%,–,Cc1cc(N2CCN(Cc3nccn3C)CC2)ccc1-c1cn(CC2CCCCO2)nn1 (stereo not drawn) [Compound I-580]
–,≤ 25%,–,Cc1cc(N2CCN(Cc3ccnn3C)CC2)ccc1-c1cn(CC2CCCCO2)nn1 (stereo not drawn) [Compound I-581]

inhibition at 2 µM,inhibition at 10 µM,IC50,Compound
–,> 75%,–,Cc1cc(N2CCN(Cc3ccn(C)n3)CC2)ccc1-c1cn(CC2CCCCO2)nn1 (stereo not drawn) [Compound I-582]
–,≤ 25%,–,Cc1cc(C2CCN(c3ccccn3)CC2)ccc1-c1cn(CC2CCCCO2)nn1 (stereo not drawn) [Compound I-583]
–,> 75%,–,Cc1cc(N2CC(C)(C)C2)cnc1-c1cn(CC2OCC(C)(C)CO2)nn1 [Compound I-584]
–,> 75%,1 to 3 µM,CCc1cc(C#CCNC(=O)OC)ccc1-c1cn(CC2CCCCO2)nn1 (stereo not drawn) [Compound I-586]
–,50 to 75%,0.3 to 1 µM,Cc1ccc(C#CC2CC2)cc1Cc1cn(C[C@H]2CCCCO2)nn1 [Compound I-587]
–,≤ 25%,–,Cc1cc(N2CC3(CCCN3Cc3ccccn3)C2)ccc1-c1cn(CC2CCCCO2)nn1 (stereo not drawn) [Compound I-590]
–,50 to 75%,–,COC(c1cn(CC2OCC(C)(C)CO2)nn1)c1cc(C#CC2CC2)ccc1C (stereo not drawn) [Compound I-592]
–,≤ 25%,–,COC(c1cn(CC2CCCCO2)nn1)c1cc(N2CC(C)(C)C2)ccc1C (stereo not drawn) [Compound I-593]
–,> 75%,≤ 0.3 µM,CCOC(c1cn(CC2CCCCO2)nn1)c1cc(C#CC2CC2)ccc1C (stereo not drawn) [Compound I-594]
–,> 75%,–,Cc1cc(N2CC(C)(CO)C2)cnc1-c1cn(CC2OCC(C)(C)CO2)nn1 [Compound I-595]
–,50 to 75%,–,Cc1cc(N2CCN(Cc3ccccn3)CC2)cnc1-c1cn(CC2OCC(C)(C)CO2)nn1 [Compound I-597]
–,> 75%,1 to 3 µM,CCc1cc(C#CCNC(=O)OC(C)C)ccc1-c1cn(CC2CCCCO2)nn1 (stereo not drawn) [Compound I-598]
–,≤ 25%,–,Cc1cc(C#CC2CC2)ccc1-c1cn(CC2CC(C)(C)CCO2)nn1 (stereo not drawn) [Compound I-599]
–,> 75%,1 to 3 µM,CC(C)c1cc(N2CC(C)(C)C2)cnc1-c1cn(CC2CC(C)(C)O2)nn1 (stereo not drawn) [Compound I-600]
–,≤ 25%,–,Cc1cc(C#CC2CC2)cnc1-c1cn(CC2OCC(C)(C)O2)nn1 (stereo not drawn) [Compound I-601]
–,≤ 25%,–,CCc1cc(C#CC2CC2)cnc1-c1cn(CC2OCC(C)(C)O2)nn1 (stereo not drawn) [Compound I-602]
–,50 to 75%,> 3 µM,Cc1cc(N2CCN(Cc3ccccn3)CC2)ccc1-c1cn(CC2OCC(C)(C)O2)nn1 (stereo not drawn) [Compound I-603]
–,> 75%,1 to 3 µM,Cc1ccc(C#CC2CC2)cc1C1(c2cn(CC3CCCCO3)nn2)OCCO1 (stereo not drawn) [Compound I-604]
–,> 75%,0.3 to 1 µM,COC(c1cn(CC2Oc3ccccc3O2)nn1)c1cc(C#CC2CC2)ccc1C (stereo not drawn) [Compound I-605]
–,50 to 75%,–,CC(C)Oc1cc(C#CCNc2ccccn2)cnc1-c1cn(CC2CC(C)(C)CO2)nn1 (stereo not drawn) [Compound I-606]
–,25 to 50%,–,COC(=O)NCC#Cc1ccc(-c2cn(CC3CCCCO3)nn2)c(C)c1 (stereo not drawn) [Compound I-607]
–,> 75%,0.3 to 1 µM,Cc1cc(C#CCNC(=O)OCc2ccccc2)ccc1-c1cn(CC2CCCCO2)nn1 (stereo not drawn) [Compound I-608]
–,50 to 75%,> 3 µM,Cc1cc(N2CC(C)(C)C2)cnc1-c1cn(CC2CCCCO2)cn1 (stereo not drawn) [Compound I-609]

inhibition at 2 µM,inhibition at 10 µM,IC50,Compound
≤ 25%,–,–,Cc1cc(C#CC2CC2)ccc1-c1cn(CC2CCCC(C)(C)O2)nn1 (stereo not drawn) [Compound I-610]
–,25 to 50%,–,Cc1cc(N2CCN([C@H](C)c3ccccn3)CC2)ccc1-c1cn(C[C@H]2CCCCO2)nn1 [Compound I-611]
–,≤ 25%,–,Cc1cc(N2CCN(C3(c4ccccn4)CC3)CC2)ccc1-c1cn(CC2CCCCO2)nn1 (stereo not drawn) [Compound I-613]
–,50 to 75%,–,Cc1cc(N2CC(C)(CO)C2)ccc1-c1cn(CC2OCC(C)(C)CO2)nn1 [Compound I-614]
–,50 to 75%,–,Cc1cc(N2CCN(Cc3ccccn3)CC2)ccc1-c1cn(CC2OCC(F)(F)CO2)nn1 [Compound I-615]
–,> 75%,> 3 µM,Cc1cc(C#CCNC(=O)OC(C)C)ccc1-c1cn(CC2CCCCO2)nn1 (stereo not drawn) [Compound I-616]
–,> 75%,≤ 0.3 µM,"Cc1ccc(C#CC2CC2)cc1C(OCC(F)(F)F)c1cn(CC2OCC(C)(C)CO2)nn1 (stereo not drawn) [Compound I-617, 4-((5-(cyclopropylethynyl)-2-methylphenyl)(2,2,2-trifluoroethoxy)methyl)-1-((5,5-dimethyl-1,3-dioxan-2-yl)methyl)-1H-1,2,3-triazole]"
–,50 to 75%,–,COC(c1cn(CC2CCCCO2)nn1)c1cc(C#CC2CC2)ccc1F (stereo not drawn) [Compound I-621]
≤ 25%,–,–,Cc1cc2ccc(N3CC(C)(C)C3)cc2nc1-c1cn(CC2CCCCO2)nn1 (stereo not drawn) [Compound I-622]
–,50 to 75%,–,Cc1cc(N2CC3(CCCN3c3ccccn3)C2)ccc1-c1cn(CC2CCCCO2)nn1 (stereo not drawn) [Compound I-623]
–,≤ 25%,–,Cc1c(C(C)c2cccc(C#CC3CC3)c2)nnn1CC1CCCCO1 (stereo not drawn) [Compound I-624]
–,50 to 75%,–,Cc1ccc(C#CC2CC2)cc1-c1noc(CC2CCCCO2)n1 (stereo not drawn) [Compound I-625]
–,25 to 50%,–,Cc1cc(N2CC(C)(CO)C2)ccc1-c1cn(CC2OCC(C)(C)O2)nn1 (stereo not drawn) [Compound I-626]
–,> 75%,–,Cc1cc(C#CCN2CC(C)(C)C2)cnc1-c1cn(CC2Oc3ccccc3O2)nn1 [Compound I-627]
–,> 75%,–,Cc1cc(N2CC(C)(CO)C2)cnc1-c1cn(CC2Oc3ccccc3O2)nn1 [Compound I-628]
–,≤ 25%,–,Cc1cc(N2CC3(CN(c4cccnc4)C3)C2)ccc1-c1cn(CC2CCCCO2)nn1 (stereo not drawn) [Compound I-629]
–,> 75%,–,CC(C)Oc1cc(N2CC(C)(C)C2)cnc1-c1cn(CC2CCCCO2)nn1 (stereo not drawn) [Compound I-630]
–,> 75%,–,COC(C)(c1cccc(C#CC2CC2)c1)c1cn(CC2CCCCO2)nn1 (stereo not drawn) [Compound I-631]
–,≤ 25%,–,COC(c1cn(CC2CCCCO2)nn1)c1cc(C#CC(C)(C)O)ccc1F (stereo not drawn) [Compound I-632]
–,50 to 75%,–,CC(c1cc(C#CC2CC2)ccn1)c1cn(CC2CCCCO2)nn1 (stereo not drawn) [Compound I-633]
–,≤ 25%,–,Cc1cc(OCC(F)(F)F)cnc1-c1cn(CC2OCC(C)(C)CO2)nn1 [Compound I-638]
–,≤ 25%,–,Cc1cc(OCC(F)(F)F)cnc1-c1cn(CC2OCC(C)(C)O2)nn1 (stereo not drawn) [Compound I-639]
–,> 75%,–,Cc1cc(C#CC2CC(F)(F)C2)ccc1-c1cn(CC2CCCCO2)nn1 (stereo not drawn) [Compound I-640]

Compound,inhibition at 2 µM,inhibition at 10 µM,IC50
Cc1ccc(C#CC2CC2)cc1C(=O)c1cn(CC2CCCCO2)nn1 (stereo not drawn) [Compound I-591],–,> 75%,0.3 to 1 µM
Cc1cc(C#CCNC(=O)Oc2ccccc2)ccc1-c1cn(CC2CCCCO2)nn1 (stereo not drawn) [Compound I-619],–,> 75%,≤ 0.3 µM
